From US20090209528A1, “SUBSTITUTED TETRAHYDROISOQUINOLINE COMPOUND, THEIR PREPARATION AND USE IN MEDICAMENTS” (LABORATORIOS DEL DR. ESTEVE S.A., priority 2006, published 2009)
Where a name gives a salt, the structure may show the parent alone.

Target: T1, 5HT6-human recombinant receptor (Homo sapiens, UniProt P50406)
T1 construct: purchased Receptor Biology; host or cells: HEK-293 cell membranes
Test: Binding to serotonin receptor 5-HT6 ([3H]-LSD displacement)
Settings: radioligand [3H]-LSD 2.7 nM; for inhibition at 0.01 µM / inhibition at 0.1 µM: 1 h; for Ki: membranes of HEK-293 cells expressing the receptor, 60 min, 37° C.
Description: Cell membranes of HEK-293 cells expressing the 5HT6-human recombinant receptor were supplied by Receptor Biology. In said membranes the receptor concentration is 2.18 pmol/mg protein and the protein concentration is 9.17 mg/ml. The experimental protocol follows the method of B. L. Roth et al. [B. L. Roth, S. C. Craigo, M. S. Choudhary, A. Uluer, F. J. Monsma, Y. Shen, H. Y. Meltzer, D. R. Sibley: Binding of Typical and Atypical Antipsychotic Agents to 5-Hydroxytryptamine-6 and Hydroxytryptamine-7 Receptors. The Journal of Pharmacology and Experimental Therapeutics, 1994, 268, 1403] with the following slight changes. The respective part of the literature description is hereby incorporated by reference and forms part of the disclosure.
The commercial membrane is diluted (1:40 dilution) with the binding buffer: 50 mM Tris-HCl, 10 mM MgCl2, 0.5 mM EDTA (pH 7.4). The radioligand used is [^3H]-LSD at a concentration of 2.7 nM with a final volume of 200 μl. Incubation is initiated by adding 100 μl of membrane suspension, (≈22.9 μg membrane protein), and is prolonged for 60 minutes at a temperature of 37° C. The incubation is ended by fast filtration in a Brandel Cell Harvester through fiber glass filters made by Schleicher & Schuell GF 3362 pretreated with a solution of polyethylenimine at 0.5%. The filters are washed three times with three milliliters of buffer Tris-HCl 50 mM pH 7.4. The filters are transferred to flasks and 5 ml of Ecoscint H liquid scintillation cocktail are added to each flask. The flasks are allowed to reach equilibrium for several hours before counting with a Wallac Winspectral 1414 scintillation counter. Non-specific binding is determined in the presence of 100 μM of serotonin. Tests were made in triplicate. The inhibition constants (Ki, nM) were calculated by non-linear regression analysis using the program EBDA/LIGAND described in Munson and Rodbard, Analytical Biochemistry, 1980, 107, 220, the respective part of which is hereby incorporated by reference and forms part of the disclosure.

T1 sequence (P50406 whole entry): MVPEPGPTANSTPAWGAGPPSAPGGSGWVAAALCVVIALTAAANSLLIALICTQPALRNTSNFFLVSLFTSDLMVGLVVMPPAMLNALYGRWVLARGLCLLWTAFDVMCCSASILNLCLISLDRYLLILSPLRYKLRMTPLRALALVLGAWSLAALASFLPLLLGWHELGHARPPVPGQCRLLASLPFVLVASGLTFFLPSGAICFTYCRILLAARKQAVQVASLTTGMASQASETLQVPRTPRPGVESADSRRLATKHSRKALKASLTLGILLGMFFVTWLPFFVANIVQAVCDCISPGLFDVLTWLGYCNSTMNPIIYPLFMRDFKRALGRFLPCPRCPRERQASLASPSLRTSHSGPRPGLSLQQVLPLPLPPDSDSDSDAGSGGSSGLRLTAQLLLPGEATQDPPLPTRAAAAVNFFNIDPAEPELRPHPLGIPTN

Row | SMILES | inhibition at 0.01 µM (compound at 10 nM) [%] | inhibition at 0.1 µM (compound at 100 nM) [%] | Ki [nM] | Binding % [10 nM] (compound at 10 nM) [%] | Binding % [100 nM] (compound at 100 nM) [%]
1 | O=S(=O)(Nc1ccc2c(c1)CCNC2)c1c(Cl)nc2sccn12 [Example 10, 6-Chloro-imidazo[2,1-b] thiazole-5-sulfonic acid (1,2,3,4,- tetrahydro-isoquinolin-6-yl)-amide hydrochloride] | 85.8 | 94.6 | 1.3 ± 0.12 | – | –
2 | Cc1c(S(=O)(=O)Nc2ccc3c(c2)CCNC3)sc2ccc(Cl)cc12 [Example 4, 5-Chloro-3-methyl-benzo[b]thiophene-2-sulfonic acid (1,2,3,4-tetrahydro-isoqui-nolin-6-yl)-amide hydrochloride] | 27.3 | 71.1 | – | – | –
3 | Cc1c(S(=O)(=O)Nc2ccc3c(c2)CNCC3)sc2ccc(Cl)cc12 [Example 60, 5-Chloro-3-methyl-benzo[b]thiophene-2-sulfonic acid (1,2,3,4-tetrahydro-isoquinolin-7-yl)-amide hydrochloride] | 44.8 | 65.1 | 49.4 ± 8.2 | – | –
4 | O=S(=O)(Nc1ccc2c(c1)CCNC2)c1cc2ccccc2s1 [Example 24, Benzo[b]thiophene-2-sulfonic acid (1,2,3,4-tetrahydro-isoquinolin-6-yl)-amide hydrochloride] | 53.6 | 86.8 | 12.6 ± 1.1 | – | –
5 | Cc1ccc(S(=O)(=O)Nc2ccc3c(c2)CN(C)CC3)c2ccccc12 [Example 56, 4-Methyl-naphthalene-1-sulfonic acid (2-methyl-1,2,3,4-tetrahydro-isoqui-nolin-7-yl)-amide hydrochloride] | 86.8 | 92.8 | 10.3 | – | –
6 | Cc1c(S(=O)(=O)Nc2ccc3c(c2)CCN(C)C3)sc2ccc(Cl)cc12 [Example 5, 5-Chloro-3-methyl-benzo[b]thiophene-2-sulfonic acid (2-methyl-1,2,3,4-tetrahydro-isoquinolin-6-yl)-amide hydrochloride] | 25.9 | 76.3 | 79.8 | – | –
7 | O=S(=O)(Nc1ccc2c(c1)CNCC2)c1ccccc1-c1ccccc1 [Example 62, Biphenyl-2-sulfonic acid (1,2,3,4-tetrahydro-isoquinolin-7-yl)-amide hydrochloride] | 89 | 86.4 | 2.4 ± 0.5 | – | –
8 | O=S(=O)(Nc1ccc2c(c1)CCNC2)c1csc2ccccc12 [Example 29, Benzo[b]thiophene-3-sulfonic acid (1,2,3,4-tetrahydro-isoquinolin-6-yl)-amide hydrochloride] | 88 | 89.6 | 5.3 ± 0.4 | – | –
9 | CN1CCc2cc(NS(=O)(=O)c3ccc4ccccc4c3)ccc2C1 [Example 9, Naphthalene-2-sulfonic acid (2-methyl-1,2,3,4-tetrahydro-isoquinolin-6-yl)-amide hydrochloride] | 60.1 | 86.5 | 9.2 ± 1.2 | – | –
10 | Cc1c(S(=O)(=O)Nc2ccc3c(c2)CNCC3)sc2ccc(F)cc12 [Example 64, 5-Fluoro-3-methyl-benzo[b]thiophene-2-sulfonic acid (1,2,3,4-tetrahydro-isoquinolin-7-yl)-amide hydrochloride] | 41.9 | 66.9 | 55.8 ± 24.1 | – | –
11 | CC(C)(C)OC(=O)N1CCc2cc(NS(=O)(=O)c3cccc4ccccc34)ccc2C1 [Example 13, 6-(Naphthalene-1-sulfonylamino)-3,4-dihydro-1H-isoquinoline-2-carboxylic acid tert-butyl ester] | 30.7 | 28.8 | 1.3 | – | –
12 | O=S(=O)(Nc1ccc2c(c1)CCNC2)c1ccc2ccccc2c1 [Example 153, Naphthalene-2-sulfonic acid (1,2,3,4-tetrahydro-isoquinolin-6-yl)-amide] | – | – | 8.7 ± 0.4 | 52.9 | 88.2
13 | COc1ccc(C)cc1S(=O)(=O)Nc1ccc2c(c1)CCN(C(=O)OC(C)(C)C)C2 [Example 17, 6-(2-Methoxy-5-methyl-benzenesulfonylamino)-3,4-dihydro-1H-isoquinoline-2-carboxylic acid tert-butyl ester] | -1.3 | -2 | – | – | –
